The test system of the test is human nAChR. Briefly: Calcium response of nAChR-overexpressing CN21 cells pre-incubated with polypeptide. The test is classed as cell-based. The following applies: CN21 cells expressing human nAChR; polypeptide 10^-11-10^-5 M; 6 hours incubation; FIG. 5. The method, then:
The bioactivity of polypeptide nAChR_BP was assessed by using […] expressing human nAChR. The CN21 cells were incubated in 12-well plates one day prior. After 25 hours of incubation, the media were removed and new media containing various concentrations (10^−11-10^−5 M) of the polypeptide were added to incubate the cells. Six hours later, concentrations of calcium ion were measured using a kit, such that the activity of nAChR_BP was determined in vitro by assessing the antagonism of the nAChR mediated increase of [Ca2+] in CN21 cells.

Positions of bridges follow the written chain, without caps; N, C: chain ends. No end group written: not given here.

As for “nAChR_BP: novel polypeptide with amino acid sequence of SEQ ID NO: 1 that targets neuronal nicotinic acetylcholine receptor (ACCLFNCHSWVGC; disulfide 2-13, 3-7)”, the “antagonism of the nAChR mediated increase of [Ca2+] in CN21 cells” value is listed as “capable of significantly inhibiting nAChRs”.
